Measured values from patent US12016881B2, “Methods and reagents for modulating macrophage phenotype” (NEW YORK UNIVERSITY, priority 2016, dated 2024).

Columns and labels:
Format in all cases: cell-based, mouse
[1] = tested on: RAW 264.7 cells; test: Gene expression analysis (qPCR) of M1 cytokines and Inos; conditions: for effect on nab-paclitaxel-dependent M1 cytokine expression: co-treatment with nab-paclitaxel
Protocol: Cell lines and cell culture treatments. All cells were maintained under 5% CO2 at 37° C. and cultured in DMEM (Gibco) supplemented with 10% FBS (Gibco), penicillin and streptomycin (Gibco), and 25 mmol/L HEPES (Gibco). Mouse RAW 264.7 cells were obtained from the American Type Culture Collection (2014, ATCC TIB-71). Mouse KPC cells were a kind gift from Dr. R. H. Vonderheide (2013) and generated as previously described (Lo et al., “Tumor-Promoting Desmoplasia Is Disrupted by Depleting FAP-Expressing Stromal Cells,” Cancer Res. 75:2800-10 (2015), which is hereby incorporated by reference in its entirety). Cell lines were not authenticated and were tested for mycoplasma contamination every 3 months by DAPI stain of cells grown for 1 week in the absence of antibiotics. KPC and RAW 264.7 were propagated for 2 to 3 passages (approximately 1 week) prior to use in all experiments and were kept in culture for no longer than 1 month. Recombinant mouse interferon gamma IFNγ was purchased from R&D Systems (CN 485 MI/CF), LPS (L2630), and paclitaxel (T7402) were purchased from Sigma-Aldrich, CLI-095 was purchased from Invivogen (TLRL-CLI95), BAPTA-AM was purchased from Life Technologies (B6769), and 5-(N-ethyl-N-isopropyl) amiloride (EIPA) was purchased from Invitrogen Molecular Probes (e-3111). Reagents were used at concentrations of 5 ng/mL (IFNγ), 20 ng/mL (LPS), […] (paclitaxel), 500 nmol/L (CLI-095), […] (BAPTA-AM), and […] (EIPA) unless indicated otherwise. Tetramethylrhodamine (TMR)-labeled dextran was purchased from Invitrogen (D1822). Nab-paclitaxel (Abraxane; Abraxis BioScience) pharmaceutical grade powder was purchased through the NYU Langone Medical Center pharmacy and used at a concentration of […] for in vitro experiments.
Gene expression analysis. For in vitro qPCR analysis, total RNAwas harvested 2 hours (IL1α, IL1β, IL6, TNFα, and iNOS) or 8 hours (IL12β) after cell culture treatments, using the QIAGEN RNA extraction Kit (QIAGEN). For in vivo gene expression analysis, the CD45 F4/80 double-positive population was sorted directly into TRIzol LS Reagent (Thermo-FisherScientific; CN 10296) from dissociated orthotopic tumors 48 hours after treatment, and total RNA was purified according to the manufacturer's protocol. Purified RNA ([…]) was reverse-transcribed using the QuantiTect Reverse Transcription Kit (QIAGEN), and 1 of 10 of cDNA mixture (in vitro experiments) or 1 of 3 of cDNA mixture (in vivo experiments) was used for qPCR reaction. Primers were obtained from Integrated DNA Technologies (IDT) with the following sequences (5′-3′): Il1α (Forward) […] (SEQ ID NO: 2), (Reverse) […] (SEQ ID NO: 3); Il1β (Forward) […] (SEQ ID NO: 4), (Reverse) […] (SEQ ID NO: 5); Il6 (Forward) […]-[…] (SEQ ID NO: 6), (Reverse) […] (SEQ ID NO: 7); Inos (Forward) […] (SEQ ID NO: 8), (Reverse) […] (SEQ ID NO: 9); Tnfα (Forward) […] (SEQ ID NO: 10), (Reverse) […] (SEQ ID NO: 11); Il12b (IIl12 p40) (Forward) […] (SEQ ID NO: 12), (Reverse) […]-[…] (SEQ ID NO: 13); Gapdh (Forward) […] (SEQ ID NO: 14), (Reverse) […] (SEQ ID NO: 15); Rps29 […] (SEQ ID NO: 16) (Forward), […]-GCGTACT (SEQ ID NO: 17) (Reverse).

[2] = tested on: RAW 264.7 cells; test: Western blot analysis of M1 cytokine and iNOS protein expression
Protocol: (§1) Cell lines and cell culture treatments. All cells were maintained under 5% CO2 at 37° C. and cultured in DMEM (Gibco) supplemented with 10% FBS (Gibco), penicillin and streptomycin (Gibco), and 25 mmol/L HEPES (Gibco). Mouse RAW 264.7 cells were obtained from the American Type Culture Collection (2014, ATCC TIB-71). Mouse KPC cells were a kind gift from Dr. R. H. Vonderheide (2013) and generated as previously described (Lo et al., “Tumor-Promoting Desmoplasia Is Disrupted by Depleting FAP-Expressing Stromal Cells,” Cancer Res. 75:2800-10 (2015), which is hereby incorporated by reference in its entirety). Cell lines were not authenticated and were tested for mycoplasma contamination every 3 months by DAPI stain of cells grown for 1 week in the absence of antibiotics. KPC and RAW 264.7 were propagated for 2 to 3 passages (approximately 1 week) prior to use in all experiments and were kept in culture for no longer than 1 month. Recombinant mouse interferon gamma IFNγ was purchased from R&D Systems (CN 485 MI/CF), LPS (L2630), and paclitaxel (T7402) were purchased from Sigma-Aldrich, CLI-095 was purchased from Invivogen (TLRL-CLI95), BAPTA-AM was purchased from Life Technologies (B6769), and 5-(N-ethyl-N-isopropyl) amiloride (EIPA) was purchased from Invitrogen Molecular Probes (e-3111). […]

[3] = tested on: RAW 264.7 cells; test: Macropinocytosis assay: OG-nab-paclitaxel internalization by macrophages; conditions: 30 minute pretreatment with inhibitor or blocking antibody
Protocol: as §1

[4] = nab-ptx in combination with IFNγ

| Structure (SMILES) | effect on nab-paclitaxel-dependent M1 cytokine expression [1] | effect on nab-paclitaxel-driven iNOS gene expression [1, 4] | effect on nab-paclitaxel-driven iNOS protein expression [2, 4] | effect on OG-nab-paclitaxel internalization [3] | effect on LPS-dependent Il1α, Il1β, Il6, Il12b, and Tnfα gene expression ([1]; TLR4 inhibitor with LPS) | effect on nab-paclitaxel-dependent Il1α, Il1β, Il6, Il12b, and Tnfα gene expression ([1]; TLR4 inhibitor with nab-ptx) | effect on nab-paclitaxel and LPS-dependent iNOS protein expression ([2]; with IFNγ) |
| --- | --- | --- | --- | --- | --- | --- | --- |
| CCN(c1nc(N)c(C(=O)N=C(N)N)nc1Cl)C(C)C [EIPA, 5-(N-ethyl-N-isopropyl) amiloride] | inhibited | partially inhibited | partially inhibited | reduced |  |  |  |
| CCOC(=O)C1=CCCC[C@H]1S(=O)(=O)Nc1ccc(F)cc1Cl [CLI-095] |  |  |  |  | abrogated | abrogated | abrogated |
| CC(=O)OCOC(=O)CN(CC(=O)OCOC(C)=O)c1ccccc1OCCOc1ccccc1N(CC(=O)OCOC(C)=O)CC(=O)OCOC(C)=O [BAPTA-AM] | inhibited |  |  |  |  |  |  |
